In patent US20260176267A1, “PREPARATION OF IMIDAZOPYRIDINE AND IMIDAZOPYRIDAZINE DERIVATIVES AS NOVEL DIACYLGLYCERIDE O-ACYLTRANSFERASE 2 INHIBITORS” (Merck Sharp & Dohme LLC, priority 2022, published 2026):

What follows are compounds tested against T1, human DGAT2 (hDGAT2) (Homo sapiens, UniProt Q96PD7) (assay: DGAT2 Enzymatic Activity Assay). Details: membrane prep of Sf-9 cells expressing hDGAT2; 13C18-triolein product by LC/MS/MS; 25 μM diolein, 5 μM 13C oleoyl-CoA, rt.
T1 construct: made in house; host or cells: Sf-9 insect cells (baculovirus), membrane fraction
T1 sequence (Q96PD7 1-388): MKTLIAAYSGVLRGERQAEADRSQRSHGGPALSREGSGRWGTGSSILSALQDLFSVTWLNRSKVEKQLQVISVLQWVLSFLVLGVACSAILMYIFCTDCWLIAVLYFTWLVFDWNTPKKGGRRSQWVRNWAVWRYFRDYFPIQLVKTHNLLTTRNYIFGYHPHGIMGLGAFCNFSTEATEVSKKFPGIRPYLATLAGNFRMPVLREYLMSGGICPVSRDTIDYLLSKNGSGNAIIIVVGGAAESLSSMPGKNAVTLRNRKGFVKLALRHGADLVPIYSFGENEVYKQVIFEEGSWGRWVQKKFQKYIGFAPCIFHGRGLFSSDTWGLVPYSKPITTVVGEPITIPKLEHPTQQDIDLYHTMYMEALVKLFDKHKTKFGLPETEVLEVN
Type: biochemical
Summary of the method: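 At room temperature, DGAT2 activity in baculovirus-infected Sf-9 membrane preps (human enzyme, untagged) is measured as formation of ^13C18-triolein. Product is extracted and measured by positive-mode LC/MS/MS, with the ratio to spiked ^13C21-triolein giving inhibition and IC50.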

Row | Structure (SMILES) | IC50 [nM]
1 | Cc1c(C(=O)NC2(C)CN(C(=O)C(F)(F)F)C2)nc2ccc(Oc3ncc(F)cc3OCC(F)F)cn12 [Example 85, 6-[[3-(2,2-difluoroethoxy)-5-fluoro-2-pyridyl]oxy]-3-methyl-N-[3-methyl-1-(2,2,2-trifluoroacetyl)azetidin-3-yl]imidazo[1,2-a]pyridine-2-carboxamide] | 1.6
2 | Cc1cc2nc(C(=O)NC3(CC(F)(F)F)CCS(=O)(=O)CC3)cn2cc1Oc1ncc(Cl)cc1OCC(F)(F)F [Example 12, 6-[[5-chloro-3-(2,2,2-trifluoroethoxy)-2-pyridyl]oxy]-N-[1,1-dioxo-4-(2,2,2-trifluoroethyl)thian-4-yl]-7-methyl-imidazo[1,2-a]pyridine-2-carboxamide] | 5.6
3 | CCOc1cccnc1COc1ccc2nc(C(=O)NC3(C)CCS(=O)(=O)CC3)c(C)n2c1 [Example 125, 6-[(3-ethoxy-2-pyridyl)methoxy]-3-methyl-N-(4-methyl-1,1-dioxo-thian-4-yl)imidazo[1,2-a]pyridine-2-carboxamide] | 4.9
4 | CCOc1cccnc1Oc1ccc2nc(C(=O)N[C@@H]3CCCC[C@@H]3O)cn2c1 [Example 37] | 124
5 | CCC1(NC(=O)c2nc3ccc(Oc4ncc(F)cc4OCC(F)F)cn3c2C)CCS(=O)(=O)CC1 [Example 66, 6-[[3-(2,2-difluoroethoxy)-5-fluoro-2-pyridyl]oxy]-N-(4-ethyl-1,1-dioxo-thian-4-yl)-3-methyl-imidazo[1,2-a]pyridine-2-carboxamide] | 0.8
6 | Cc1c(C(=O)NC2(CC(F)(F)F)CCS(=O)(=O)CC2)nc2ccc(Oc3ncc(F)cc3OCC(F)F)cn12 [Example 62, 6-[[3-(2,2-difluoroethoxy)-5-fluoro-2-pyridyl]oxy]-N-[1,1-dioxo-4-(2,2,2-trifluoroethyl)thian-4-yl]-3-methyl-imidazo[1,2-a]pyridine-2-carboxamide] | 1.5
7 | Cc1cn(C)nc1COc1ccc2nc(C(=O)NC3(C)CCS(=O)(=O)CC3)cn2n1 [Example 183, 6-((1,4-dimethyl-1H-pyrazol-3-yl)methoxy)-N-(4-methyl-1,1-dioxidotetrahydro-2H-thiopyran-4-yl)imidazo[1,2-b]pyridazine-2-carboxamide] | 808
8 | CC1(NC(=O)c2nc3ccc(Oc4ncccc4OCC(F)(F)F)cn3c2C(F)(F)F)CCS(=O)(=O)CC1 [Example 136, N-(4-methyl-1,1-dioxo-thian-4-yl)-6-[[3-(2,2,2-trifluoroethoxy)-2-pyridyl]oxy]-3-(trifluoromethyl)imidazo[1,2-a]pyridine-2-carboxamide] | 146
9 | CC1(NC(=O)c2nc3cc(Cl)c(Oc4ncc(Cl)cc4OCC(F)F)nn3c2Cl)CS(=O)(=O)C1 [Example 175, 3,7-dichloro-6-[[5-chloro-3-(2,2-difluoroethoxy)-2-pyridyl]oxy]-N-(3-methyl-1,1-dioxo-thietan-3-yl)imidazo[1,2-b]pyridazine-2-carboxamide] | 0.4
10 | Cc1c(C(=O)NC2CCS(=O)(=O)C(C)(C)C2)nc2ccc(Oc3ncc(F)cc3OCC(F)(F)F)cn12 (stereo not shown) [Example 105, N-(2,2-dimethyl-1,1-dioxo-thian-4-yl)-6-[[5-fluoro-3-(2,2,2-trifluoroethoxy)-2-pyridyl]oxy]-3-methyl-imidazo[1,2-a]pyridine-2-carboxamide] | 193
11 | CCOc1cccnc1Oc1ccc2nc(C(=O)N[C@H]3CCCC[C@@H]3O)cn2c1 [Example 22, 6-[(3-ethoxy-2-pyridyl)oxy]-N-[(1S,2S)-2-hydroxycyclohexyl]imidazo [1,2-a]pyridine-2-carboxamide] | 3.5
12 | Cc1c(C(=O)NC2(C)CCS(=O)(=O)CC2)nc2ccc(Oc3ncccc3OCC(F)(F)F)cn12 [Example 87, 3-methyl-N-(4-methyl-1,1-dioxo-thian-4-yl)-6-[[3-(2,2,2-trifluoroethoxy)-2-pyridyl]oxy]imidazo[1,2-a]pyridine-2-carboxamide] | 17
13 | CC1(NC(=O)c2cn3cc(Oc4ncccc4OCC(F)(F)F)ccc3n2)CCS(=O)(=O)CC1 [Example 14, N-(4-methyl-1,1-dioxo-thian-4-yl)-6-[[3-(2,2,2-trifluoroethoxy)-2-pyridyl]oxy]imidazo[1,2-a]pyridine-2-carboxamide] | 5.3
14 | Cc1c(C(=O)NC2(C)CCS(=O)(=O)CC2)nc2ccc(Oc3ncc(C(C)(C)O)cc3OCC(F)(F)F)cn12 [Example 146, 6-[[5-(1-hydroxy-1-methyl-ethyl)-3-(2,2,2-trifluoroethoxy)-2-pyridyl]oxy]-3-methyl-N-(4-methyl-1,1-dioxo-thian-4-yl)imidazo[1,2-a]pyridine-2-carboxamide] | 102
15 | CC(C)c1c(C(=O)NC2(C)CCS(=O)(=O)CC2)nc2ccc(Oc3ncccc3OCC(F)(F)F)cn12 [Example 116, 3-isopropyl-N-(4-methyl-1,1-dioxo-thian-4-yl)-6-[[3-(2,2,2-trifluoroethoxy)-2-pyridyl]oxy]imidazo[1,2-a]pyridine-2-carboxamide] | 413
16 | Cc1c(C(=O)NC2(C)CCS(=O)(=O)CC2)nc2ccc(Oc3ncc(Cl)cc3OCC(F)(F)F)cn12 [Example 61, 6-[[5-chloro-3-(2,2,2-trifluoroethoxy)-2-pyridyl]oxy]-3-methyl-N-(4-methyl-1,1-dioxo-thian-4-yl)imidazo[1,2-a]pyridine-2-carboxamide] | 3
17 | Cc1cc2nc(C(=O)NC3(C)CCS(=O)(=O)CC3)cn2cc1Oc1ncc(F)cc1OCC(C)(F)F [Example 19, 6-[[3-(2,2-difluoropropoxy)-5-fluoro-2-pyridyl]oxy]-7-methyl-N-(4-methyl-1,1-dioxo-thian-4-yl)imidazo[1,2-a]pyridine-2-carboxamide] | 7.7
18 | CC(C)c1c(Oc2ncc(Cl)cc2OCC(F)(F)F)ccc2nc(C(=O)NC3(C)CCS(=O)(=O)CC3)cn12 [Example 49, 6-[[5-chloro-3-(2,2,2-trifluoroethoxy)-2-pyridyl]oxy]-5-isopropyl-N-(4-methyl-1,1-dioxo-thian-4-yl)imidazo[1,2-a]pyridine-2-carboxamide] | 12
19 | O=C(NC1(CC(F)(F)F)CCS(=O)(=O)CC1)c1cn2cc(Oc3ncc(Cl)cc3OCC(F)(F)F)ccc2n1 [Example 5, 6-[[5-chloro-3-(2,2,2-trifluoroethoxy)-2-pyridyl]oxy]-N-[1,1-dioxo-4-(2,2,2-trifluoroethyl)thian-4-yl]imidazo[1,2-a]pyridine-2-carboxamide] | 36
20 | Cc1cnc(Oc2ccc3nc(C(=O)NC4(C)CS(=O)(=O)C4)c(C)n3c2)c(OCC(F)(F)F)n1 [Example 96] | 5.7
21 | CCc1cnc(Oc2ccc3nc(C(=O)NC4(C)CS(=O)(=O)C4)c(C)n3c2)c(OCC(F)(F)F)c1 [Example 79, 6-[[5-ethyl-3-(2,2,2-trifluoroethoxy)-2-pyridyl]oxy]-3-methyl-N-(3-methyl-1,1-dioxo-thietan-3-yl)imidazo[1,2-a]pyridine-2-carboxamide] | 6.8
22 | CC(F)(F)COc1cc(Cl)cnc1Oc1ccc2nc(C(=O)NC3(C)CCS(=O)(=O)CC3)cn2n1 [Example 154, 6-[[5-Chloro-3-(2,2-difluoropropoxy)-2-pyridyl]oxy]-N-(4-methyl-1,1-dioxo-thian-4-yl)imidazo[1,2-b]pyridazine-2-carboxamide] | 154
23 | CC1(NC(=O)c2cn3nc(Oc4ncc(F)cc4OC4CCC4)ccc3n2)CCS(=O)(=O)CC1 [Example 158, 6-[[3-(Cyclobutoxy)-5-fluoro-2-pyridyl]oxy]-N-(4-methyl-1,1-dioxo-thian-4-yl)imidazo[1,2-b]pyridazine-2-carboxamide] | 590
24 | CC(C)c1cc2nc(C(=O)NC3(C)CCS(=O)(=O)CC3)cn2cc1Oc1ncc(Cl)cc1OCC(F)(F)F [Example 43, 6-[[5-chloro-3-(2,2,2-trifluoroethoxy)-2-pyridyl]oxy]-7-isopropyl-N-(4-methyl-1,1-dioxo-thian-4-yl)imidazo[1,2-a]pyridine-2-carboxamide] | 122
25 | CC1(NC(=O)c2cn3nc(Oc4ncc(F)cc4OCC(F)(F)F)ccc3n2)CCS(=O)(=O)CC1 [Example 164, 6-[[5-Fluoro-3-(2,2,2-trifluoroethoxy)-2-pyridyl]oxy]-N-(4-methyl-1,1-dioxo-thian-4-yl)imidazo[1,2-b]pyridazine-2-carboxamide] | 16
26 | CC1(NC(=O)c2cn3cc(Oc4ncc(F)cc4OCC(F)(F)F)ccc3n2)CS(=O)(=O)C1 [Example 32, 6-[[5-fluoro-3-(2,2,2-trifluoroethoxy)-2-pyridyl]oxy]-N-(3-methyl-1,1-dioxo-thietan-3-yl)imidazo[1,2-a]pyridine-2-carboxamide] | 31
27 | CC1(NC(=O)c2cn3c(F)c(Oc4ncccc4OCC(F)(F)F)ccc3n2)CCS(=O)(=O)CC1 [Example 39, 5-fluoro-N-(4-methyl-1,1-dioxo-thian-4-yl)-6-[[3-(2,2,2-trifluoroethoxy)-2-pyridyl]oxy]imidazo[1,2-a]pyridine-2-carboxamide] | 74
28 | CCC(F)(F)c1cccnc1Oc1ccc2nc(C(=O)NC3(C)CCS(=O)(=O)CC3)cn2c1 [Example 58, 6-[[3-(1,1-difluoropropyl)-2-pyridyl]oxy]-N-(4-methyl-1,1-dioxo-thian-4-yl)imidazo[1,2-a]pyridine-2-carboxamide] | 262
